This note sets out measurements from PubChem BioAssay (NCI).

Each structure is given as a SMILES string. Where “and” joins values, the source holds several entries; their conditions need not be identical. Identical values can stand only once.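 Dose response: 5 concentrations. Exposure: 48 h. Format: 96-well plates. Endpoint: linear interpolation; highest concentration if not reached. At the GI50, growth is halved. TGI denotes the concentration required for complete inhibition of growth.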

This assay relates to MDA-MB-468 breast. Kind of assay: inhibition of tumour cell growth, NCI panel, 48 h.
`O=C(Oc1c(Cl)c(Cl)c(Cl)c(Cl)c1Cl)C1CCCN1C(=O)OCc1ccccc1` (stereo not given): the GI50 is 2900 nM and the TGI was 12600 nM.
For `CC(=O)OCCC/C(=C/c1cc2ccccc2c2ccccc12)[N+](=O)[O-]` the same measures were 291 nM and 1060 nM.
On to `COc1ccc(/C=N/C2=NNC(C)(c3ccccc3O)N2C(Cc2c[nH]c3ccccc23)C(=O)O)cc1` (stereo not given), for which the GI50 is 2210 nM and the TGI worked out at 7340 nM.
On to `C=CC(=O)N1CCC(CNc2ncnc(N)c2-c2ccc(Oc3ccccc3)cc2)CC1`, for which the GI50 is 7290 nM and the TGI worked out at 55700 nM.
With `CCc1cccc2c3c(sc12)C(c1ccc(OC)cc1)C(C#N)=C(/N=C/c1ccc(Cl)cc1)O3` (stereo not given), the GI50 is 1930 nM and the TGI was found to be 6680 nM.
As for `CCCCc1n(Cc2ccc3ccccc3n2)cc[n+]1Cc1ccc2ccccc2c1`, the GI50 was 216 nM and the TGI stood at 903 nM.
As for `CN1CCC(n2cnc(-c3ccc(F)cc3)c2-c2ccnc(Nc3ccccc3)n2)CC1`, the GI50 was 3030 nM and the TGI amounted to 10400 nM.
For `C=C(C)[C@@H]1CC[C@]2(COC(=O)c3ccccc3C(=O)O)CC[C@]3(C)[C@H](CC[C@@H]4[C@@]5(C)CC[C@H](OC(=O)c6ccccc6C(=O)O)C(C)(C)[C@@H]5CC[C@]43C)[C@@H]12` the same measures were 29800 nM and greater than 100000 nM.
The corresponding values for `Cc1ccc(Nn2c(SCC(=O)Nc3nc(-c4ccccc4)cs3)nc(C)c2C)cc1` are 1700 nM and 6670 nM.
In the case of `CC[C@H](C)C(=O)O[C@H]1C[C@@H](C)C=C2C=C[C@H](C)[C@H](CC[C@@H]3C[C@@H](O)CC(=O)O3)[C@H]21`, the GI50 is 2030 nM and 2840 nM; the TGI was 14600 nM and 14800 nM.
As to `Nc1nc(N)c2cc(S(=O)(=O)c3ccccc3)ccc2n1`, the GI50 is 8010 nM and the TGI is greater than 100000 nM.
For `O=C(C[n+]1ccn(CC(OCc2ccc(Cl)cc2Cl)c2ccc(Cl)cc2Cl)c1)c1ccc(F)cc1` (stereo not given) the same measures were 732 nM and 2200 nM.
As for `CSc1ccc(/C(=N/N=C(N)N)c2ccc(Cl)cc2)cc1`, the GI50 was 369 nM and the TGI was found to be 1500 nM.
Turning to `O=C1Nc2cc(-c3ccc(O)cc3)ccc2/C1=C/c1ccc[nH]1`, the GI50 was 123 nM and the TGI is 756 nM.
Turning to `N#CC1=C(N)Oc2c(ccc3cccnc23)C1c1ccccc1` (stereo not given), the GI50 is 270 nM and the TGI turned out to be 916 nM.
Turning to `COc1ccc(-c2cncn2-c2ccc(-c3nc4cc(OC)c(OC)c(OC)c4s3)cc2)cc1N`, the GI50 was 8600 nM and the TGI is greater than 100000 nM.
Take `COC(=O)C[C@@H]1CC=CC(=O)/C1=C(O)/C=C/c1ccccc1`: the GI50 was 666 nM and the TGI turned out to be 2150 nM.
Consider `CN1CCN(c2ccc(NC(=O)c3cncnc3Nc3ccc4c(ccn4Cc4cccc(F)c4)c3)cc2)CC1`, for which the GI50 is 1910 nM and the TGI came to 6920 nM.
As for `Nc1n[nH]c2cc(F)c([C@@H]3Nc4c(F)cc5[nH]ncc5c4[C@H]4C5CCC(C5)[C@@H]34)cc12` (stereo not given in full), the GI50 was 86 nM and the TGI amounted to 250 nM.
As for `COc1ccc2c(ccc3oc([N+](=O)[O-])cc32)c1`, the GI50 is 121 nM and the TGI came out at 338 nM.
